# Reference: US6107333A (priority 1999, dated 2000)
# Entries after “also recorded” stand apart in the source; their conditions may differ. Where two headings read alike, the source gives them in different places.
# Key:
# [1] = Solubility of paclitaxel in various solvents (HPLC); assay type: physicochemical
# Experimental: A known amount of the drug, as a powder (two different aliquots of purified drug were obtained from Xechem Inc. New Brunswick, N.J.), was equilibrated in the respective solvent at RT (22° C.) over 1 hour. An aliquot was then removed and diluted in MeOH prior to HPLC at predetermined times. […] Different solvent systems were evaluated relative to the above estimates of necessary solubility to arrive at a clinically relevant stable stock formulation. This stock formulation would then be diluted with a "final solvent" to yield a complete stable clinical working formulation of 1-5 mg/ml, that could be infused parenterally. The final solvent was selected from one of the commonly utilized parental infusion fluids, NS, 5% dextrose in water or a parenterally acceptable aqueous lipid emulsion (e.g., Intralipid), all of which are readily available and approved for parenteral administration.
# An excess of paclitaxel as a powder was added to DMA, DMSO, PEG, and PG at RT. Each mixture was placed in a dark environment and checked visually for up to 1 hour for evidence of solubilization.
# erythrocytes = experiment: Hemolysis studies in vitro; assay type: cell-based; details: drug concentrations up to and exceeding 50 μg/ml; 4 hours at 37° C.
# Experimental: The procedure of Parthasarathy et al. was used to examine the hemolytic potential of a few selected preparations and the LD50 values of the most optimal formulation was constructed as described (Parthasarathy et al., 1994). Heparinized blood was mixed with an equal volume of Alsever's solution. […] These mixtures were then incubated for 4 hours at 37° C. At the end of the incubation, the cells were pelleted at 10,000×gin an Eppendorf micro-centrifuge and the release of hemoglobin in the supernatant (ie., hemolysis) was determined spectrophotometrically at 550 nm. Maximum lysis was measured against a reference solution of erythrocytes that had been completely lysed by hypotonic shock. The hemolytic potential of the "optimal" complete formulation was evaluated as described (Parthasarathy et al., 1994) and the data were plotted as the fraction of healthy cells versus 1n (total volume percent). Total volume percent was defined as the volume percent of the vehicle in the mixture after dilution with blood. This was done to simulate the dilution of the respective drug formulation in the blood stream after parenteral administration.
# [2] = for Stability (in words) / Degradation over first 60 days (in words): 25 mg/ml; for Stability of use-formulation (in words): aqueous lipid emulsion as terminal solvent
# Experimental: To study the physical and chemical stability of the various parenteral formulations, 3 sets of studies were performed: […]
# The various formulations were analyzed by HPLC immediately after mixing, then hourly for 8 hours, and then at gradually increasing time intervals for more than 10 days, depending on the initial rate of degradation in the respective solvent system.
# Different aliquots were stored at 4° C., 22° C., 40° C., and 60° C. […] Immediately after solubilization and at various intervals up to more than 50 days, aliquots from different samples were analyzed by HPLC.
# [3] = Paclitaxel plasma concentration after iv injection in rats; assay type: in vivo, male Sprague-Dawley rats; details: 3 mg/kg iv
# Experimental: For the in vivo study, male Sprague-Dawley rats with a body weight of 250-300 g were used. They were bought from the Harlan-Sprague-Dawley local breeding facility in Houston, Tex. The animals were allowed a minimum of 3-4 days to accommodate to the change of environment after shipping to the MD Anderson Cancer Center. All animals were allowed free access to commercial feed and tap water prior to and during the pharmacological study. The dose of 3 mg/kg was determined as the highest dose that could be given to the rats as a slow iv injection of the Cremophor® EL based preparation without a lethal anaphylactoid reaction in the absence of pharmacological premedication.
# This avoided the possible influence of induction of microsomal liver enzymes which could alter drug metabolism/elimination and influence (the later part of) the plasma concentration curve. For the same reason, all animals were unanesthesized and only physically restrained during the drug injection. The drug concentration of the injected use-formulation was confirmed by HPLC prior to use. […] The blood was centrifuged at 1,000×g for 10 min and the plasma was separated and stored at -80° C. until extracted and assayed by HPLC as described above.
# [4] = test system: ovarian and mammary carcinomas; details: clinical testing; cited from earlier work
structure (smiles),measurement,setting,value
CC(=O)O[C@H]1C(=O)[C@@]2(C)[C@H]([C@H](OC(=O)c3ccccc3)[C@]3(O)C[C@H](OC(=O)[C@H](O)[C@@H](NC(=O)c4ccccc4)c4ccccc4)C(C)=C1C3(C)C)[C@]1(OC(C)=O)CO[C@@H]1C[C@@H]2O [Paclitaxel],solubility,"[1]; 5% dextrose, solvent 5% dextrose, 60 min at room temperature, read-out: Solubility",< 100 µg/mL
same,Solubility (in words),"[1]; PEG-400, PG, NS, Intralipid and 5% dextrose, RT",did not yield any significant concentrations of solubilized drug
same,solubility,"[1]; dma, organic solvent or mixture, solvent DMA, RT, read-out: Solubility",> 200000 µg/mL
same,solubility,"[1]; dmso, organic solvent or mixture, solvent DMSO, RT, read-out: Solubility",> 100000 µg/mL
same,solubility,"[1]; intralipid, solvent Intralipid, 60 min at room temperature, read-out: Solubility",< 100 µg/mL
same,Solubility (in words),[1]; most of the aqueous solvents,insoluble in most of the aqueous solvents
same,solubility,"[1]; normal saline, solvent normal saline, 60 min at room temperature, read-out: Solubility",< 100 µg/mL
same,solubility,"[1]; peg, organic solvent or mixture, solvent PEG, 60 min at room temperature, read-out: Solubility",< 100 µg/mL
same,solubility,"[1]; propylene glycol, organic solvent or mixture, solvent propylene glycol, 60 min at room temperature, read-out: Solubility",< 100 µg/mL
same,solubility,"[1]; solvent DMA, RT",> 100000 µg/mL
same,Paclitaxel dependent lysis (in words),erythrocytes,barely notable above background
same,Time within which significant degradation took place,[2],4 to 6 h
same,Time without discernible degradation,[2],more than 4.5 months
same,Stability (in words),[2]; room temperature,stable at 25 mg/ml for several months at room temperature
same,Concentration of stable solution,[2]; DMA with PEG added (stock solution),25000 µg/mL
same,Degradation over first 60 days (in words),"[2]; DMA:PEG (1:3, v/v) stock, 4° C.",did not show any significant degradation
same,Stability (in words),"[2]; DMA:PEG (1:3, v/v) stock, 4° C., 4.5 months",overlapping with that recorded for the samples stored at RT
same,Degradation over first 60 days (in words),"[2]; DMA:PEG (1:3, v/v) stock, 40° C.",did not show any significant degradation
same,Degradation over first 60 days (in words),"[2]; DMA:PEG (1:3, v/v) stock, RT",did not show any significant degradation
same,Stability of use-formulation (in words),"[2]; 1 mg/ml, 4° C.",stable at 1 mg/ml and at 5 mg/ml for over one week
same,Stability of use-formulation (in words),"[2]; 1 mg/ml, RT",stable at 1 mg/ml and at 5 mg/ml for over one week
same,Stability of use-formulation (in words),"[2]; 5 mg/ml, 4° C.",stable at 1 mg/ml and at 5 mg/ml for over one week
same,Stability of use-formulation (in words),"[2]; 5 mg/ml, RT",stable at 1 mg/ml and at 5 mg/ml for over one week
same,Degradation on storage (in words),"[2]; in DMA, >100 mg/ml, RT",started degrading slowly after storage over night at RT
same,Paclitaxel plasma concentrations (in words),[3],"clearly cytocidal concentrations of paclitaxel are maintained for many hours; also recorded: clearly reach, and for extended time, remain in the antineoplastic range"
same,Antitumor activity (in words),[4],impressive activity against ovarian and mammary carcinomas
